Assay results reported in patent publication US7935670B2, “Hepatitis C virus inhibitors” (Bristol-Myers Squibb Company, priority 2006, dated 2011).
pIC50: −log10 of the molar value. Read-outs that look alike come from different tables or passages of the source.

Assays:
[1] = biological target: T1, HCV NS3/4A protease complex, BMS strain (UniProt P27958, species not given/STRAIN_BMS); test: FRET peptide assay to monitor HCV NS3/4A proteolytic activity (BMS strain); format: biochemical, HCV genotype 1a
T1 construct: given for H77 and J4L6S, not expressly for BMS; fused on or other part: three-lysine solubilising tail at the end of NS4A (given for the H77 and J4L6S constructs)
From the text: HCV NS3 protease complexes, derived from the BMS strain, H77 strain or J4L6S strain, were generated, as described below. These purified recombinant proteins were generated for use in a homogeneous assay (see below) to provide an indication of how effective compounds of the present disclosure would be in inhibiting HCV NS3 proteolytic activity.
Serum from an HCV-infected patient was obtained from Dr. T. Wright, San Francisco Hospital. An engineered full-length cDNA (compliment deoxyribonucleic acid) template of the HCV genome (BMS strain) was constructed from DNA fragments obtained by reverse transcription-PCR(RT-PCR) of serum RNA (ribonucleic acid) and using primers selected on the basis of homology between other genotype 1a strains. From the determination of the entire genome sequence, a genotype 1a was assigned to the HCV isolate according to the classification of Simmonds et al. (See P Simmonds, K A Rose, S Graham, S W Chan, F McOmish, B C Dow, E A Follett, P L Yap and H Marsden, J. Clin. Microbiol., 31(6), 1493-1503 (1993)). […] The infectious clones, H77 (1a genotype) and J4L6S (1b genotype) were obtained from R. Purcell (NIH) and the sequences are published in Genbank (AAB67036, see Yanagi, M., Purcell, R. H., Emerson, S. U. and Bukh, J. Proc. Natl. Acad. Sci. U.S.A. 94(16), 8738-8743 (1997); AF054247, see Yanagi, M., St Claire, M., Shapiro, M., Emerson, S. U., Purcell, R. H. and Bukh, J, Virology 244 (1), 161-172. (1998)).
NS3/4A protease complex-containing fractions were pooled and loaded on a desalting column Superdex-S200 pre-equilibrated with buffer D (25 mM HEPES, pH 7.5, 20% glycerol, 300 mM NaCl, 0.2% Triton X-100, 10 mM βME). Sample was loaded at a flow rate of 1 mL/min. NS3/4A protease complex-containing fractions were pooled and concentrated to approximately 0.5 mg/ml. The purity of the NS3/4A protease complexes, derived from the BMS, H77 and J4L6S strains, were judged to be greater than 90% by SDS-PAGE and mass spectrometry analyses. The enzyme was stored at −80° C., thawed on ice and diluted prior to use in assay buffer.
The purpose of this in vitro assay was to measure the inhibition of HCV NS3 protease complexes, derived from the BMS strain, H77 strain or J4L6S strain, as described above, by compounds of the present disclosure. This assay provides an indication of how effective compounds of the present disclosure would be in inhibiting HCV NS3 proteolytic activity.
In order to monitor HCV NS3/4A protease activity, an NS3/4A peptide substrate was used. The substrate was RET S1 (Resonance Energy Transfer Depsipeptide Substrate; AnaSpec, Inc. cat #22991)(FRET peptide), described by Taliani et al. in Anal. Biochem. 240(2):60-67 (1996). The sequence of this peptide is loosely based on the NS4A/NS4B natural cleavage site for the HCV NS3 protease except there is an ester linkage rather than an amide bond at the cleavage site. The peptide also contains a fluorescence donor, EDANS, near one end of the peptide and an acceptor, DABCYL, near the other end. The fluorescence of the peptide is quenched by […] resonance energy transfer (RET) between the donor and the acceptor, but as the NS3 protease cleaves the peptide the products are released from RET quenching and the fluorescence of the donor becomes apparent.
The peptide substrate was incubated with one of the three recombinant NS3/4A protease complexes, in the absence or presence of a compound of the present disclosure. The inhibitory effects of a compound were determined by monitoring the formation of fluorescent reaction product in real time using a Cytofluor Series 4000.
Assay buffer: 50 mM HEPES, pH 7.5; 0.15 M NaCl; 0.1% Triton; 15% Glycerol; 10 mM βME. Substrate: 2 μM final concentration (from a 2 mM stock solution in DMSO stored at −20° C.). HCV NS3/4A protease type 1a (1b), 2-3 nM final concentration (from a 5 μM stock solution in 25 mM HEPES, pH 7.5, 20% glycerol, 300 mM NaCl, 0.2% Triton-X100, 10 mM βME). […]

[2] = test system: human pancreatic chymotrypsin; test: Specificity assay, chymotrypsin; format: biochemical; conditions: 2 h enzyme-inhibitor pre-incubation
Procedure: The specificities of compounds of the present disclosure were determined against a variety of serine proteases: human neutrophil elastase (HNE), porcine pancreatic elastase (PPE) and human pancreatic chymotrypsin and one cysteine protease: human liver cathepsin B. In all cases a 96-well plate format protocol using colorimetric p-nitroaniline (pNA) substrate specific for each enzyme was used as described previously (PCT Patent Application No. WO 00/09543) with some modifications to the serine protease assays. All enzymes were purchased from Sigma while the substrates were from Bachem.
Each assay included a 2 h enzyme-inhibitor pre-incubation at room temperature followed by addition of substrate and hydrolysis to ˜30% conversion as measured on a Spectramax Pro microplate reader. Compound concentrations varied from 100 to 0.4 μM depending on their potency.
50 mM Tris(hydroxymethyl)aminomethane hydrochloride (Tris-HCl) pH 8, 0.5 M Sodium Sulfate (Na2SO4), 50 mM NaCl, 0.1 mM EDTA, 3% DMSO, 0.01% Tween-20 with:
133 μM succ-AAA-pNA and 20 nM HNE or 8 nM PPE; 100 μM succ-AAPF-pNA and […] Chymotrypsin.
The percentage of inhibition was calculated using the formula: [1−((UVinh−UVblank)/(UVctl−UVblank))]×100
A non-linear curve fit was applied to the inhibition-concentration data, and the 50% effective concentration (IC50) was calculated by the use of Excel Xl-fit software.

T1 sequence (P27958 1027-1657, change not shown, one chain of several): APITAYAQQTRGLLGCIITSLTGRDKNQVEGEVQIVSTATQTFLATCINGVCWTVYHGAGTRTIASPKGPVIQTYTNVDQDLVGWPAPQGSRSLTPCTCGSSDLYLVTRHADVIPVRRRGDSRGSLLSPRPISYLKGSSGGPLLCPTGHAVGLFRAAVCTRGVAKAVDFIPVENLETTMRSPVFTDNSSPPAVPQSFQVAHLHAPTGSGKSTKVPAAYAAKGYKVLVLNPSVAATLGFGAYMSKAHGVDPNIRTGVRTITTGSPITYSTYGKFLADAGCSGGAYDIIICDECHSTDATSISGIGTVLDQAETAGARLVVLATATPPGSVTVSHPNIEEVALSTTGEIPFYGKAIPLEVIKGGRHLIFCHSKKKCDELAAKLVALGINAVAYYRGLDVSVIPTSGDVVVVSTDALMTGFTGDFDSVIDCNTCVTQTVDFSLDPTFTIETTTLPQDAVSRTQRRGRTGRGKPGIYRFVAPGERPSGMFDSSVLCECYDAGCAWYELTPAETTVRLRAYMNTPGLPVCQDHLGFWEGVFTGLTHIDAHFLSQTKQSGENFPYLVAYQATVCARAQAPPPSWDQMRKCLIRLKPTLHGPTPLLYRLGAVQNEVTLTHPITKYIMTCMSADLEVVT

C=C[C@@H]1C[C@]1(NC(=O)[C@@H]1C[C@@H](OC(=O)c2ccccc2)CN1C(=O)[C@@H](NC(=O)OC(C)(C)C)C(C)(C)C)C(=O)NS(=O)(=O)C1CC1 [Compound 1]
pIC50 ([1]; read-out: Activity Range (IC50), NS3/4A BMS strain): 7.30 to 9.00 | pIC50 ([1]; read-out: IC50 against the NS3/4A BMS strain in the enzyme assay, BMS strain): 7.89 | pIC50 [2]: < 3.70
